Assay [1] has as its target Ribosomal protein S6 kinase alpha-2 (Homo sapiens) (UniProt Q15349). The settings on record: at 10 µM.
Assay [2] concerns the target T1, Serine/threonine-protein kinase tousled-like 1 (Homo sapiens) (UniProt Q9UKI8).
T1 sequence (whole entry): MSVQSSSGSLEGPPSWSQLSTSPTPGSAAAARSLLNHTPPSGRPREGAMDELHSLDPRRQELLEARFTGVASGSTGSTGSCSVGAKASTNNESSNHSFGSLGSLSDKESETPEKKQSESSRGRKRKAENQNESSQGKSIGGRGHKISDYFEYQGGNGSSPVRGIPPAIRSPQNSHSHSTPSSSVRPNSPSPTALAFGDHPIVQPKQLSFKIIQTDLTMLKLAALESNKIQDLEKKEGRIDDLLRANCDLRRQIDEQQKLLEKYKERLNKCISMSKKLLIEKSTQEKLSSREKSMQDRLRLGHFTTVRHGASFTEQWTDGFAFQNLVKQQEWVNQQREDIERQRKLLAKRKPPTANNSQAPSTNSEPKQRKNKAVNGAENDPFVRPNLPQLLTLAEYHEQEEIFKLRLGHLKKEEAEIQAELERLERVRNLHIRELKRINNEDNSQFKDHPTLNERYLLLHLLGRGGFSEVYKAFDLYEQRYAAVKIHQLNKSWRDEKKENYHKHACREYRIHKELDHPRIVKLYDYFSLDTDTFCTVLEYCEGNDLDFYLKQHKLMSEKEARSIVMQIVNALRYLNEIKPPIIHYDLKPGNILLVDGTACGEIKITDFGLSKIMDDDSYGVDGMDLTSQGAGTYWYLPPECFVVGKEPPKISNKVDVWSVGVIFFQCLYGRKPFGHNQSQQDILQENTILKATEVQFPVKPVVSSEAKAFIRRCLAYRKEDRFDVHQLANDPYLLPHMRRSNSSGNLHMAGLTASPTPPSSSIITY
As to the kind of experiment: Selectivity interaction (KinomeScan (DiscoverX)) EUB0001079a TLK1. The settings on record: at 1 µM.

In assay [3] the target is T2, Peregrin (Homo sapiens) (UniProt P55201).
T2 sequence (whole entry): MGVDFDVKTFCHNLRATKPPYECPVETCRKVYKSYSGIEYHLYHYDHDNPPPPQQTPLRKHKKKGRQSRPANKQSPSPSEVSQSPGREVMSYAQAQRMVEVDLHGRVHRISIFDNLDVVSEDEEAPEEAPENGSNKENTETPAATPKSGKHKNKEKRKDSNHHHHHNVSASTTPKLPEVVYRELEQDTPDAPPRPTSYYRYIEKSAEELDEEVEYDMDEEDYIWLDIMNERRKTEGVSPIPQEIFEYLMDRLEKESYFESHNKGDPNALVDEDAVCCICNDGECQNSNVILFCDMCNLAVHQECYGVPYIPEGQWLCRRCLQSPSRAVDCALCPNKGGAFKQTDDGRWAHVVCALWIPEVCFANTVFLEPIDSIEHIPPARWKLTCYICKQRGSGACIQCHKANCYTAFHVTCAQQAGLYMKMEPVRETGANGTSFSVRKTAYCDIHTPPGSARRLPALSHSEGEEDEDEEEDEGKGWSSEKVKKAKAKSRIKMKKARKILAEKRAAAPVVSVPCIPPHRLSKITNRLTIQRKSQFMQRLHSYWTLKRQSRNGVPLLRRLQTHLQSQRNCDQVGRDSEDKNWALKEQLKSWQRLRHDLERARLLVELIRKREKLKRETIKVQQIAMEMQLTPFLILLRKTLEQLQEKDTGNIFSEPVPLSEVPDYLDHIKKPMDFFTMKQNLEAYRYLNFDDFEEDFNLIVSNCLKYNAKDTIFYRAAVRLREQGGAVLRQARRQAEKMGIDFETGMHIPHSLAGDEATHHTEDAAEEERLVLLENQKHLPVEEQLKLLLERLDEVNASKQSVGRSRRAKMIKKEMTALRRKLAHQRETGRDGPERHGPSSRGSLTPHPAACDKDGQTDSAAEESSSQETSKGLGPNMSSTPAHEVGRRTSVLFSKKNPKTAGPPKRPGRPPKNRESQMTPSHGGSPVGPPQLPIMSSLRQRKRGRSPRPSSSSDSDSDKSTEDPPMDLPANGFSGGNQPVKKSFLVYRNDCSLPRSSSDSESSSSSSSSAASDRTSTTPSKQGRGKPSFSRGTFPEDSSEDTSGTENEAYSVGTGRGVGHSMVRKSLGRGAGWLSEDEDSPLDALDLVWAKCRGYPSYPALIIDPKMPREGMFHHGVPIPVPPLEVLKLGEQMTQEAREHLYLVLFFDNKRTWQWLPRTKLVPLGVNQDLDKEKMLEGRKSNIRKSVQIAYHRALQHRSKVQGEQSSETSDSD
In words: Selectivity interaction (Bromodomain panel (DSF asssay)) EUB0000270b BRPF1.

Assay [4] deals with Dual specificity mitogen-activated protein kinase kinase 1 (Homo sapiens, UniProt Q02750). In words: Selectivity interaction (Kinase panel (Z-LYTE Assay)) EUB0001632a MAP2K1. The settings on record: at 10 µM.
Dual specificity mitogen-activated protein kinase kinase 1, sequence (Q02750 whole entry): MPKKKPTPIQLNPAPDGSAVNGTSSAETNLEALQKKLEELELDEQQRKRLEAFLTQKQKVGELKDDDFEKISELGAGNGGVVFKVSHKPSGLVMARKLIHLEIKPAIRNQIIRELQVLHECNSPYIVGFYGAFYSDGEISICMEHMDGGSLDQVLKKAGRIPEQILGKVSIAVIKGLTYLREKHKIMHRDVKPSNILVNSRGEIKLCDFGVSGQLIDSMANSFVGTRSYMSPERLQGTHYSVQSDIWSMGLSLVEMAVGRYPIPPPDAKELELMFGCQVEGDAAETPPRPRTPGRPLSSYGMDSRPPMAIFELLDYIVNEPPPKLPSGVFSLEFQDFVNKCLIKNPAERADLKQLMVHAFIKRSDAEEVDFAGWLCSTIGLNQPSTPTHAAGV
Assay [5] addresses Protein arginine N-methyltransferase 6 (Homo sapiens, UniProt Q96LA8). In words: Selectivity interaction (Methyltransferase screen (radiometric assays, panel of 8 PRMTs, 21 protein lysine methyltransferases, 3 DNA methyltransferases, and one RNA methyltransferase)) EUB0000272b PRMT6.
In assay [6] the target is Serine/threonine-protein kinase Nek4 (Homo sapiens) (UniProt P51957). As to the kind of experiment: Selectivity interaction (KinomeScan (DiscoverX)) EUB0001619a NEK4. The note with it: at 1 µM.
Serine/threonine-protein kinase Nek4 (Homo sapiens), sequence (P51957 whole entry, looked up): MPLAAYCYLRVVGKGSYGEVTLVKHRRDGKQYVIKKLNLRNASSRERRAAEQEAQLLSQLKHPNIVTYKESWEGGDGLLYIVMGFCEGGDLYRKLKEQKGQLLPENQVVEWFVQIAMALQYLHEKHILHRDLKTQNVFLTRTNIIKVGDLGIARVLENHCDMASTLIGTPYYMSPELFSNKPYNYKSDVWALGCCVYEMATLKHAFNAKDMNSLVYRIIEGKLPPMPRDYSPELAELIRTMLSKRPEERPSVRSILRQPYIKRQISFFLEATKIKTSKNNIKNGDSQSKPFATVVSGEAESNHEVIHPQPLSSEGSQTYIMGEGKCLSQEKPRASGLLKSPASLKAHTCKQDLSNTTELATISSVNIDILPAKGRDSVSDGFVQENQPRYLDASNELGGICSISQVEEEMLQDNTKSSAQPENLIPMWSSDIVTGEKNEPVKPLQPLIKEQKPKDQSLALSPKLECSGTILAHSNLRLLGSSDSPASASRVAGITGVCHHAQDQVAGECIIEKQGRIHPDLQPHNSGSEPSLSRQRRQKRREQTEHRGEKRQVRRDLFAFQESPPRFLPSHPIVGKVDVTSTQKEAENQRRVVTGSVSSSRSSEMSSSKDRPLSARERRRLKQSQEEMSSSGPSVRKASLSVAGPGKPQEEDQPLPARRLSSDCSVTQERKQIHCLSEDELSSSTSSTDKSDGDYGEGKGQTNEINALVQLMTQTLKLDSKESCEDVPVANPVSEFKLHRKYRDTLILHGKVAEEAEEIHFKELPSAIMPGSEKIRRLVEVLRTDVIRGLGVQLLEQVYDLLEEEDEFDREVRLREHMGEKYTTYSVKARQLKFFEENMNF
For assay [7], the target named is 3',5'-cyclic-AMP phosphodiesterase 4D (Homo sapiens) (UniProt Q08499). As to the kind of experiment: Selectivity interaction (Safety Panel 44tm (Eurofins)) EUB0000162b PDE4D. The settings on record: at 10 µM.
3',5'-cyclic-AMP phosphodiesterase 4D (Homo sapiens), sequence (Q08499 whole entry): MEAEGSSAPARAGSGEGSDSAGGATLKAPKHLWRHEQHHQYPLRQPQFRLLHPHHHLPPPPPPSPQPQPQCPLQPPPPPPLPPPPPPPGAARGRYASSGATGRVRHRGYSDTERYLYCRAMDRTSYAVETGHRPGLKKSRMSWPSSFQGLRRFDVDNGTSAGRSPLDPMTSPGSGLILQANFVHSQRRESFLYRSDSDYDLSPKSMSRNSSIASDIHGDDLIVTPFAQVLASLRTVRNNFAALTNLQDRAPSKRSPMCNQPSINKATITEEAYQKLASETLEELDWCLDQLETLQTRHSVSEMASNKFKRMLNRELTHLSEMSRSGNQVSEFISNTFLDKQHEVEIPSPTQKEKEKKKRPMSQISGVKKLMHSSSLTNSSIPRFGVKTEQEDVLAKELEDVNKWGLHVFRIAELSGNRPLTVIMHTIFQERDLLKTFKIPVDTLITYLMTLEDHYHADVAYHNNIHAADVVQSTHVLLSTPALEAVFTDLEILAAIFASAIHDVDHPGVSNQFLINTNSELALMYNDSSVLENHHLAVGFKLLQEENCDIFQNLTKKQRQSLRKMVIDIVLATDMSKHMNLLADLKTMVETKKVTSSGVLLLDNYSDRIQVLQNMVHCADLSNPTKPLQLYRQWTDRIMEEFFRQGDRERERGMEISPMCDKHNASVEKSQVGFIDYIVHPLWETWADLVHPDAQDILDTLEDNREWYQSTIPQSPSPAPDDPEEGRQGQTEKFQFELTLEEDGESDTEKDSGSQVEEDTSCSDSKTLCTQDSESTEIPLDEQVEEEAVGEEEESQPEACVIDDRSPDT
The target of assay [8] is 5-hydroxytryptamine receptor 2B (Homo sapiens, UniProt P41595). As to the kind of experiment: Selectivity interaction (Safety Panel 44tm (Eurofins)) EUB0000162b HTR2B. The note with it: at 10 µM.
5-hydroxytryptamine receptor 2B, sequence (P41595 whole entry): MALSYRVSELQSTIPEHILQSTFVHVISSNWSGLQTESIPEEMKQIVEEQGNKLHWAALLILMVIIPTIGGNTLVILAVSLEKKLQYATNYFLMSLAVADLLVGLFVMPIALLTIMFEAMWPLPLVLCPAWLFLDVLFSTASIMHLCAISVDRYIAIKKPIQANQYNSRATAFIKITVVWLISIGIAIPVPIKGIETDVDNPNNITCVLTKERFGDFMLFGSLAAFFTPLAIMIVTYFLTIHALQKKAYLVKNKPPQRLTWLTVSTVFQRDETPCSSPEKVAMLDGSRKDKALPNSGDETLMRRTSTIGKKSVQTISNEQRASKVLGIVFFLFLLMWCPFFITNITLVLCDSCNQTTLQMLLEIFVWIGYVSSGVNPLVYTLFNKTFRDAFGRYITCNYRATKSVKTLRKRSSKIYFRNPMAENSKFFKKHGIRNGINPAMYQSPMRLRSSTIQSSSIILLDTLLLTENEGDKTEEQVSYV
Assay [9] concerns the target Interleukin-1 receptor-associated kinase 1 (Homo sapiens) (UniProt P51617). As to the kind of experiment: Selectivity interaction (Kinase panel (KiNativ target engagement assay in Jurkat cells)) EUB0001635a IRAK1. The class given is cell-based. The note with it: Selectivity number of off-targets 0.0, Selectivity number of targets 233.0, Source Knowledge https://www.sciencedirect.com/science/article/pii/S2451945619300674?via%3Dihub, at 1 µM.

Assay [10] concerns the target SRSF protein kinase 2 (Homo sapiens) (UniProt P78362). As to the kind of experiment: Selectivity interaction (KinomeScan (DiscoverX)) EUB0000618a SRPK2. The note with it: at 10 µM.

Protein arginine N-methyltransferase 6, sequence (Q96LA8 whole entry, looked up): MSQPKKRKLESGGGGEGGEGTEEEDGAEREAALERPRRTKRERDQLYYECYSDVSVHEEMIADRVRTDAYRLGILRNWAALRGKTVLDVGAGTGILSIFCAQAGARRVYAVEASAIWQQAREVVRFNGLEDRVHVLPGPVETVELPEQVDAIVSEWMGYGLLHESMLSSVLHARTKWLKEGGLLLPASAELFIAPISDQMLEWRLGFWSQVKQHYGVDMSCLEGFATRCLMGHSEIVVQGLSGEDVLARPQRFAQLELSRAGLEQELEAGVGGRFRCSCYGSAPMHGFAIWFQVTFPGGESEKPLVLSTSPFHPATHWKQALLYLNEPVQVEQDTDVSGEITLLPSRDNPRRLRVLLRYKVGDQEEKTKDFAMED
Ribosomal protein S6 kinase alpha-2 (Homo sapiens), sequence (Q15349 whole entry): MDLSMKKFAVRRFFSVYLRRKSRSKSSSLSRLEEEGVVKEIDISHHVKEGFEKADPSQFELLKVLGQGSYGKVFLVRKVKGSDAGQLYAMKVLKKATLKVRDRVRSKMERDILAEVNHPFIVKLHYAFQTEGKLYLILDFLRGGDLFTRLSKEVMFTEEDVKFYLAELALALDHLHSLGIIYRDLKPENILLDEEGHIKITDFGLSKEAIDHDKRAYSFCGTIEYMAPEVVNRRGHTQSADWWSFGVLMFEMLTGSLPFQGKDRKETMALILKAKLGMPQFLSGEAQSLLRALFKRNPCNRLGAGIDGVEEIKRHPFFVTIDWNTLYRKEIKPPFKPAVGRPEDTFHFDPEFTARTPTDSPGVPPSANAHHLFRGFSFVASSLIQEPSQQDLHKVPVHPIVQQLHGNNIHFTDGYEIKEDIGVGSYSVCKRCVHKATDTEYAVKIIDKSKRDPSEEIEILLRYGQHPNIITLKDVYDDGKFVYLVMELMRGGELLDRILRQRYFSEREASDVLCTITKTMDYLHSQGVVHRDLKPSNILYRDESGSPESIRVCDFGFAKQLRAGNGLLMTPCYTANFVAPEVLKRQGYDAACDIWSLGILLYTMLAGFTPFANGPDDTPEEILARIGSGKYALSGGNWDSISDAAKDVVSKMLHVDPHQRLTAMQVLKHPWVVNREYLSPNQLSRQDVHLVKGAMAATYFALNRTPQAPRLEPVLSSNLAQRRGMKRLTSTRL
Interleukin-1 receptor-associated kinase 1 (Homo sapiens), sequence (P51617 whole entry, looked up): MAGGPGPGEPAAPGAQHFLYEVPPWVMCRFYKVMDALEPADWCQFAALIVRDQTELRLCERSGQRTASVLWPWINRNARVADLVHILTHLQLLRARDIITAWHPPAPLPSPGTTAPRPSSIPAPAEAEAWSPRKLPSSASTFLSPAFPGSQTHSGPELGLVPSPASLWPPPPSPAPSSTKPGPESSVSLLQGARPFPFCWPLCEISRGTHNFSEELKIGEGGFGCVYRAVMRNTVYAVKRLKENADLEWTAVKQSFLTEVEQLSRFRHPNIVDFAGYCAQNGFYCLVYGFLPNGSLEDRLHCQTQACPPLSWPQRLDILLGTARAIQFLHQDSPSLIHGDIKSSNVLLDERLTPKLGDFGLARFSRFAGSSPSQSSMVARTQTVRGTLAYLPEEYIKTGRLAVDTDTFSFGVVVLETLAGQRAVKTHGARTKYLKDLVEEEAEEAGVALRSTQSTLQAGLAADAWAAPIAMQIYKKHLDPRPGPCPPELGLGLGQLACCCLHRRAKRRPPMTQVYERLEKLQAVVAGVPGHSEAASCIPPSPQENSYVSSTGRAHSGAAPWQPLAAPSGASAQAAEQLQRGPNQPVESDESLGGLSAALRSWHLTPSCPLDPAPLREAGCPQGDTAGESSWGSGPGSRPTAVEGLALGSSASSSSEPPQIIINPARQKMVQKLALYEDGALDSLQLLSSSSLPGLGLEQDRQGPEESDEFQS
SRSF protein kinase 2 (Homo sapiens), sequence (P78362 whole entry, looked up): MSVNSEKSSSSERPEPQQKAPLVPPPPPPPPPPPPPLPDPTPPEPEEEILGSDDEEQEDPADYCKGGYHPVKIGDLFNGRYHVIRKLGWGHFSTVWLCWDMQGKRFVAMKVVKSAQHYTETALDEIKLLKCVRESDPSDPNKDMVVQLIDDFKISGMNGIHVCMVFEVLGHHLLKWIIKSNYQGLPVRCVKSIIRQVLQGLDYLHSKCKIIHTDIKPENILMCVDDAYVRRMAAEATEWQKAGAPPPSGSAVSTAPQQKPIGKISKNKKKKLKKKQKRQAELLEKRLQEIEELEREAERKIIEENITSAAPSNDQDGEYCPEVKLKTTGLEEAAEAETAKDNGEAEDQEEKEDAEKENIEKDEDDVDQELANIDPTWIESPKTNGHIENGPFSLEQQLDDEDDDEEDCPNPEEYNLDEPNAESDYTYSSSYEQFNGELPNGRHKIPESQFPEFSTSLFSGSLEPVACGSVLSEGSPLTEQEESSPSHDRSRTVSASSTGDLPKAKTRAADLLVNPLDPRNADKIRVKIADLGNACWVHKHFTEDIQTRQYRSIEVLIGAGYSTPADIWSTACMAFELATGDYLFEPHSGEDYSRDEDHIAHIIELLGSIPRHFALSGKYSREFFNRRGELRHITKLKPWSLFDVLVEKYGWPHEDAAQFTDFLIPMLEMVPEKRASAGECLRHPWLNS

Regarding `CCN(CC)CCCCNc1ncc2cc(-c3cc(OC)cc(OC)c3)c(NC(=O)NC(C)(C)C)nc2n1`, in assay [1], the % of control was determined as 100%.

Consider `Nc1cnc(N2CCc3cc(S(=O)(=O)Nc4c(F)cc(Cl)cc4F)cc(N4CCCC4=O)c32)nc1` [TP-020n], for which the % of control in [2] was 100%.

As for `Cc1cc(CN)cc(C)c1-c1ncn(C)c1-c1cncn1C`, in assay [3], the dTM was -1.98 K. Take `Cn1cc(-n2cnc3c(NCc4nc5cc(Cl)c(Cl)cc5[nH]4)nc(N4CCOCC4)nc32)cn1`: the % of control in assay [4] was -2.06%.

On to `Cc1cc(C)cc([C@H]2c3cc(C)ccc3NC(=O)CN2C(=O)c2ccc(Br)s2)c1`, for which the figures for the % of activity in [5] (at 1 µM) and in assay [5] (at 10 µM) were 92.3% and 92.7%, respectively.

With `N#Cc1cccc(-c2c[nH]c3ncnc(N4CCOCC4)c23)c1`, in assay [6], the % of control came out at 100%. As for `CN(C)C(=O)Cn1cc(-c2ccc(-c3cncc4ccccc34)cc2)cn1`, the % of control was 54% in [7] and 34% in assay [8].

The compound `C=CC(=O)Nc1ccc(C(=O)Nc2[nH]nc3c2CN(C(=O)N[C@H](CN(C)C)c2ccccc2)C3(C)C)cc1` gave a % of engagement in assay [9] of 1.3%. Take `O[C@H]1CC[C@H](Nc2ncc3nc(Nc4c(F)cc(F)cc4F)n([C@H]4CCOC4)c3n2)CC1`: the % of control in assay [10] was 100%.

The values are drawn from ChEMBL document CHEMBL5465560, “Selectivity Literature for EUbOPEN Chemogenomic Library” (2024).
